One experiment concerns the target rSNORF33 (Rattus norvegicus, UniProt Q923Y9). In words: [3H]-TYR binding (saturation and displacement) to rSNORF33-transfected COS-7 membranes. The note with it: rSNORF33 in transfected COS-7 membranes; 2–4 experiments; read-out: Mean Ki ± S.D.M., displacement of [3H]-tyramine. More on the design: expressed in transfected cells; host or cells: COS-7 (transient). The procedure:
(§1) Radioligand binding assays were performed by diluting membranes prepared from cells expressing the receptor (with co-expression of the rat G-protein alpha S subunit for human SNORF33) in 25 mM Gly-Gly buffer (Sigma, pH=7.4 @ 0° C.) containing 5 mM ascorbate and 10 μM pargyline (final protein concentration in assay=100-300 μg/ml). Membranes were then incubated with either [^3H]-TYR (American Radiochemicals, specific activity 60 mCi/μmole) or [^3H]-T (Amersham, specific activity 98 mCi/μmole) in the presence or absence of competing ligands on ice for 30 min in a total volume of 250 μl in 96 well microtiter plates. The bound ligand was separated from free by filtration through GF/B filters presoaked in 0.5% polyethyleneimine (PEI), using Tomtec (Wallac) or Brandel Cell Harvester vacuum filtration device. After addition of Ready Safe (Beckman) scintillation fluid, bound radioactivity was quantitated using a Trilux (Wallac) scintillation counter (approximately 20% counting efficiency of bound counts). Data was fit to non-linear curves using GraphPad Prism.
(§2) In this manner, agonist or antagonist compounds that bind to the receptor may be identified as they inhibit the binding of the labeled ligand to the membrane protein of cells expressing the said receptor. Non-specific binding was defined as the amount of radioactivity remaining after incubation of membrane protein in the presence of 10 μM of the unlabeled amine corresponding to the radioligand used. In equilibrium saturation binding assays, membrane preparations or intact cells transfected with the receptor are incubated in the presence of increasing concentrations of the labeled compound to determine the binding affinity of the labeled ligand. The binding affinities of unlabeled compounds may be determined in equilibrium competition binding assays, using a fixed concentration of labeled compound in the presence of varying concentrations of the displacing ligands.

The target in the next experiment is T1, hSNORF33 (Homo sapiens, UniProt Q96RJ0).
T1 sequence (Q96RJ0 1-339): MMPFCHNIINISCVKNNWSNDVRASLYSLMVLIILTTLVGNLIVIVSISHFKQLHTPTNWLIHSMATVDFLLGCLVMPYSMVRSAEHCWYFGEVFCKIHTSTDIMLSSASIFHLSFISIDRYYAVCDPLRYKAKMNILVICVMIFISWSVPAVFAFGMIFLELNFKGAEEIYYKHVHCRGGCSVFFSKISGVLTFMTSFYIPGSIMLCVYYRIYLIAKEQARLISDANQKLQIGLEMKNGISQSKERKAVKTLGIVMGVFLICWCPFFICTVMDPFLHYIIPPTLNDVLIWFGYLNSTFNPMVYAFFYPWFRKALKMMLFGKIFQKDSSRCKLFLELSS
In words: [3H]-TYR binding (saturation and displacement) to human SNORF33 COS-7 membranes. More on the design: expressed in transfected cells; host or cells: COS-7 (membranes). The note with it: human SNORF33 in transfected COS-7 membranes; read-out: Mean Ki ± S.D.M., displacement of [3H]-tyramine. How it is done:
as §1, with “[^3H]-TYR and [^3H]-T binding assays were performed essentially as described by Mallard et al. (1992), with minor modifications. Radioligand” for “Radioligand”
as §2

Experiment [1] has as its target T2, mouse SNORF33 (Mus musculus, UniProt Q923Y8).
T2 construct: expressed in transfected cells; host or cells: COS-7 (membranes)
The experiment can be described thus: [3H]-TYR binding (saturation and displacement) to mouse SNORF33 COS-7 membranes. The note with it: mouse SNORF33, displacement of [3H]TYR; read-out: Ki (individual determinations). The procedure: as §1, with “[^3H]-TYR and [^3H]-T binding assays were performed essentially as described by Mallard et al. (1992), with minor modifications. Radioligand” for “Radioligand”
as §2
(Loss of bound radioactivity is the signal in a displacement assay; it reports binding, not function.)

Experiment [2] has as its target T2, mouse SNORF33. The experiment can be described thus: cAMP assay at mouse SNORF33. It is filed as cell-based. The procedure: The receptor-mediated stimulation or inhibition of cyclic AMP (cAMP) formation may be assayed in cells expressing the mammalian receptors. Cells are plated in 96-well plates or other vessels and preincubated in a buffer such as HEPES buffered saline (NaCl (150 mM), CaCl2 (1 mM), KCl (5 mM), glucose (10 mM)) supplemented with a phosphodiesterase inhibitor such as 5 mM theophylline, with or without protease inhibitor cocktail (For example, a typical inhibitor cocktail contains 2 μg/ml aprotinin, […] leupeptin, and 10 μg/ml phosphoramidon.) for 20 min at 37° C., in 5% CO2. Test compounds are added with or without […] forskolin and incubated for an additional 10 min at 37° C. The medium is then aspirated and the reaction stopped by the addition of 100 mM HCl or other methods. The plates are stored at 4° C. for 15 min, and the cAMP content in the stopping solution is measured by radioimmunoassay. Radioactivity may be quantified using a gamma counter equipped with data reduction software. Specific modifications may be performed to optimize the assay for the receptor or to alter the detection method of cAMP.
COS-7 cells were transiently transfected with rSNORF33 gene using the calcium phosphate method and plated in 96-well plates. 48 hours after transfection, cells were washed twice with Dulbecco's phosphate buffered saline (PBS) supplemented with 10 mM HEPES, 10 mM glucose, 5 mM theophylline and 10 μM pargyline and were incubated in the same buffer for 20 min at 37° C., in […] 5% CO2. Test compounds were added and cells were incubated for an additional 10 min at 37° C. The medium was then aspirated and the reaction stopped by the addition of 100 mM HCl. The plates were stored at −20° C. for 2-5 days. For cAMP measurement, plates were thawed and the cAMP content in each well was measured by radioimmunoassay cAMP Scintillation Proximity Assay (Amersham Pharmacia Biotech). Radioactivity was quantified using microbeta Trilux counter (Wallac).
On the technique in general: cAMP levels reflect the balance of adenylyl cyclase and phosphodiesterase activity.

Another experiment concerns the target cloned 5-HT receptors. The note with it: read-out: Ki values at several cloned 5-HT receptors; cited from earlier work.

“And” between values parts separate entries of the source, which are not always exact repeats. Identical values can stand only once.

Chain of rSNORF33 (Q923Y9 whole entry): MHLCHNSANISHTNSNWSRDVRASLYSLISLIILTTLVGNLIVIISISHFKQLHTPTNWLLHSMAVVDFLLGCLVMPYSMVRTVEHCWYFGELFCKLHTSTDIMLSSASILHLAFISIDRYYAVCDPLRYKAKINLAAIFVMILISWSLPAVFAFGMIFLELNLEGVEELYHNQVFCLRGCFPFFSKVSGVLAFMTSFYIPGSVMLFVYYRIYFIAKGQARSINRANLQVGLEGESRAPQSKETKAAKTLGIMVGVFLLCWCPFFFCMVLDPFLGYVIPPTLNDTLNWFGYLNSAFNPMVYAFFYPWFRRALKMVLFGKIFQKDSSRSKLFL
T2 sequence (Q923Y8 whole entry): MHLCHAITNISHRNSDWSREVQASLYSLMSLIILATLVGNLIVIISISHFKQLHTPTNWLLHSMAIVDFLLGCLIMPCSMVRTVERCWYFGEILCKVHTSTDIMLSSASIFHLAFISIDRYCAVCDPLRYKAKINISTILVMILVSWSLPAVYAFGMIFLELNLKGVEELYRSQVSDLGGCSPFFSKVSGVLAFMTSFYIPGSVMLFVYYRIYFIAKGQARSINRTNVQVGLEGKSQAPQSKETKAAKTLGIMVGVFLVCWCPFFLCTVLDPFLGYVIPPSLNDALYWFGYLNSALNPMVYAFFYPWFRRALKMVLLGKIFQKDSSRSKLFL

On to `NCC(O)c1ccc(O)cc1` (centres unmarked) [Octopamine (OCT), Octopamine], for which the Ki at rSNORF33 amounted to 310 ± 71 nM; at hSNORF33, 417 ± 285 nM.

As for `NCCc1c[nH]c2ccccc12` [Tryptamine (T), Tryptamine], the Ki at mouse SNORF33 [1] is 140 nM; at rSNORF33, 70 ± 14 nM; on cloned 5-HT receptors, 1 to 100 nM; on hSNORF33, 1130 ± 372 nM. On mouse SNORF33 [2], the “Agonism in the cAMP assay” value is reported as “full agonists”.

`NCCc1ccc(O)cc1` [Tyramine (TYR), Tyramine]: the Ki was 19 nM and 20 nM on mouse SNORF33 [1]; 13 ± 4 nM on rSNORF33; 51 ± 11 nM on hSNORF33. Also, at mouse SNORF33 [2], the “Agonism in the cAMP assay” value is “full agonists”.

One may read the Ki as the equilibrium dissociation constant of an inhibitor or competing ligand from its target.

These data come from patent US7517658B2, “Methods for preparing compositions using a SNORF33 receptor” (H. Lundbeck A/S, priority 1999, dated 2009).
